Data published in patent US20060276407A1, “Methods of treating hepatitis C virus” (Schering Corporation, priority 2005, published 2006).
Read-outs that look alike come from different tables or passages of the source.

Key:
HCV-RNA viral load = assay: Effect on HCV-RNA viral load, 14 days dosing of HCV positive genotype 1 interferon non responders (Example 3); type: in vivo
Method: Multiple escalating doses of compound of Formula Ia were administered for 14 days to HCV positive subjects who were genotype 1 Interferon-a (with or without ribavirin) non responders. In a randomized, placebo controlled, third party blind study, multiple doses of 100 mg BID, 200 mg BID, 400 mg BID, 400 mg TID, and 600 mg TID of compound of Formula Ia or placebo in a 3:1 ratio with or without food were evaluated. […]
Serial HCV-RNA data were evaluated for antiviral activity and for the change from baseline in the serum HCV RNA levels.

[1] = Multiple oral dosing for 14 days, pharmacokinetics in HCV infected subjects (Example 3); type: in vivo, human; conditions: for DN Cmax / DN-AUC(0-12 hr): dose-normalized (to 100 mg); for Cmin: at 0 hour (trough) predose; for Cmax / AUC(0-t) / Tmax / Vd/F / half-life: human, plasma, oral; for half-life: read-out: t½ (converted)
Method: Multiple escalating doses of compound of Formula Ia were administered for 14 days to HCV positive subjects who were genotype 1 Interferon-a (with or without ribavirin) non responders. In a randomized, placebo controlled, third party blind study, multiple doses of 100 mg BID, 200 mg BID, 400 mg BID, 400 mg TID, and 600 mg TID of compound of Formula Ia or placebo in a 3:1 ratio with or without food were evaluated.
Upon acceptance into the study, within each cohort, subjects were randomized in a 3:1 ratio (active to placebo) and received one of the following dosing groups: • Group 1: Compound of Formula Ia 100 mg (2×50 mg) BID or matching placebo×14 days without food. • Group 2: Compound of Formula Ia 200 mg (2×100 mg) BID or matching placebo×14 days without food. • Group 3: Compound of Formula Ia 400 mg (4×100 mg) BID or matching placebo×14 days without food. • Group4: Compound of Formula Ia 400 mg (4×100 mg) TID or matching placebo×14 days without food. • Group 5: Compound of Formula Ia 400 mg (4×100 mg) BID or matching placebo×14 days with food. • Group 6: Compound of Formula Ia 600 mg (6×100 mg) BID or matching placebo×14 days without food. • Group 7: Compound of Formula Ia 600 mg (6×100 mg) BID or matching placebo×14 days with food. • Group 8: compound of Formula Ia 600 mg (6×100 mg) TID or matching placebo×14 days without food. • Group 9: compound of Formula Ia intermediate dose or matching placebo×14 days with or without food.
Each subject was randomized to one treatment group. On Day 14, only the AM dose was administered.
For Cohorts Without Food: Treatments were administered on the morning (approximately 8 AM) of Days 1 and 14 following a 10 hour fast. Fasting continued until 4 hours postdose. Water was allowed during the fasting period. On the nonpharmacokinetic collection days (Days 2 through 13) breakfast and dinner were consumed either 90 minutes before or 90 minutes after each dose. All treatments were administered with approximately 240 mL of noncarbonated water. All doses on Days 1-14 were administered at approximately the same time each day, for cohorts with BID dosing study treatment were administered approximately 12 hours apart at 8 AM and 8 PM, and for cohorts with TID dosing study treatment were administered approximately 8 hours apart at 8 AM, 4 PM, and 12 Midnight.
For Cohorts With TID Dosing: All volunteers were dosed three times daily at approximately the same time each day; the doses were administered approximately 8 hours apart at 8 AM, 4 PM, and 12 Midnight.
For Cohorts With BID Dosing: All volunteers were dosed twice a day at approximately the same time each day. The doses were administered approximately 12 hours apart at 8 AM and 8 PM.
On Day 14, all subjects received only their assigned AM dose. During the dosing the capsule(s) were swallowed whole, not chewed or crushed. After dosing, the oral cavity was inspected to assure the volunteer had completely swallowed the capsule(s). […] Water was permitted throughout the fasting and nonfasting periods.
The plasma concentration data of compound of Formula Ia was used to estimate the following pharmacokinetic parameters: • Cmax—Maximum observed plasma concentration; • Tmax—Time of observed maximum plasma concentration; • AUC(0-t)—Area under the plasma concentration-time curve over the dosing interval • AUC (tf)—Area under the plasma concentration-time curve to the final quantifiable sample • CL/F—Apparent total body clearance. • t½—Terminal phase half life • Vd/F—Apparent volume of distribution • R—Accumulation ratio
All plasma samples were assayed for compound of Formula Ia using a validated liquid chromatographic tandem mass spectrometric (LC-MS/MS) method.

[2] = 100 mg, Day 14, 100 mg BID, mean
[3] = 200 mg, Day 14, 200 mg BID, mean
[4] = 400 mg, Day 14, 400 mg BID, mean
[5] = 400 mg, Day 14, 400 mg TID, mean

CC(C)(C)NC(=O)N[C@H](C(=O)N1C[C@H]2[C@@H]([C@H]1C(=O)NC(CC1CCC1)C(=O)C(N)=O)C2(C)C)C(C)(C)C (mixture of isomers) [Formula Ia, (1 R, 5S)-N-[3-Amino-1-(Cyclobutylmethyl)-2,3-Dioxopropyl]-3-[2(S)-[[[(1,1-Dimethylethyl)Amino]Carbonyl]Amino]-3,3-Dimethyl-1-Oxobutyl]-6,6-Dimethyl-3-Azabicyclo[3.1.0]Hexan-2(S)-Carboxamide]
Viral load (HCV-RNA) reduction from baseline, average minimum reduction (HCV-RNA viral load; 400 mg TID, 14 days): 2 logs
HCV-RNA following discontinuation of the 14-day treatment (HCV-RNA viral load; all patients): returned to baseline levels
mean accumulation ratio ([1]; BID dosing): 1
DN Cmax ([1]; Day 1, 100 mg BID, mean): 131 ng/mL
DN-AUC(0-12 hr) ([1]; Day 1, 100 mg BID, mean): 417 ng·h/mL
DN Cmax ([1]; Day 1, 200 mg BID, mean): 162 ng/mL
DN-AUC(0-12 hr) ([1]; Day 1, 200 mg BID, mean): 492 ng·h/mL
DN Cmax ([1]; Day 1, 400 mg BID, mean): 116 ng/mL
DN-AUC(0-12 hr) ([1]; Day 1, 400 mg BID, mean): 421 ng·h/mL
Cmin ([1]; Day 14, 100 mg BID, mean): 12.7 ng/mL
DN Cmax ([1]; Day 14, 100 mg BID, mean): 193 ng/mL
DN-AUC(0-12 hr) ([1]; Day 14, 100 mg BID, mean): 700 ng·h/mL
CL/F ([1]; Day 14, 100 mg BID, mean): 159 L/h
R (accumulation ratio) ([1]; Day 14, 100 mg BID, mean): 2.40
t½ ([1]; Day 14, 100 mg BID, mean): 8.58 h
Cmin ([1]; Day 14, 200 mg BID, mean): 46.3 ng/mL
DN Cmax ([1]; Day 14, 200 mg BID, mean): 212 ng/mL
DN-AUC(0-12 hr) ([1]; Day 14, 200 mg BID, mean): 693 ng·h/mL
CL/F ([1]; Day 14, 200 mg BID, mean): 155 L/h
R (accumulation ratio) ([1]; Day 14, 200 mg BID, mean): 1.45
Cmin ([1]; Day 14, 400 mg BID, mean): 48.8 ng/mL
DN Cmax ([1]; Day 14, 400 mg BID, mean): 115 ng/mL
DN-AUC(0-12 hr) ([1]; Day 14, 400 mg BID, mean): 411 ng·h/mL
CL/F ([1]; Day 14, 400 mg BID, mean): 269 L/h
R (accumulation ratio) ([1]; Day 14, 400 mg BID, mean): 1.00
Cmin ([1]; Day 14, 400 mg TID, mean): 183 ng/mL
DN Cmax ([1]; Day 14, 400 mg TID, mean): 138 ng/mL
CL/F ([1]; Day 14, 400 mg TID, mean): 206 L/h
R (accumulation ratio) ([1]; Day 14, 400 mg TID, mean): 1.26
Cmax ([1]; 100 mg, Day 1, 100 mg BID, mean, n = 12): 131 ng/mL
AUC(0-t) ([1]; 100 mg, Day 1, 100 mg BID, mean, read-out: AUC(0-12 hr)): 417 ng·h/mL
Tmax ([1]; 100 mg, Day 1, 100 mg BID, median, read-out: Tmax): 1.5 h
Cmax [1, 2]: 193 ng/mL
Vd/F [1, 2]: 1860 L
AUC(0-t) ([1]; 100 mg, Day 14, 100 mg BID, mean, read-out: AUC(0-12 hr)): 700 ng·h/mL
half-life [1, 2]: 8.5 h
Tmax ([1]; 100 mg, Day 14, 100 mg BID, median, read-out: Tmax): 1.25 h
Cmax ([1]; 200 mg, Day 1, 200 mg BID, mean, n = 12): 324 ng/mL
AUC(0-t) ([1]; 200 mg, Day 1, 200 mg BID, mean, read-out: AUC(0-12 hr)): 983 ng·h/mL
Tmax ([1]; 200 mg, Day 1, 200 mg BID, median, read-out: Tmax): 1 h
Cmax [1, 3]: 424 ng/mL
Vd/F [1, 3]: 2910 L
AUC(0-t) ([1]; 200 mg, Day 14, 200 mg BID, mean, read-out: AUC(0-12 hr)): 1390 ng·h/mL
half-life [1, 3]: 13.4 h
Tmax ([1]; 200 mg, Day 14, 200 mg BID, median, read-out: Tmax): 1.25 h
Cmax ([1]; 400 mg, Day 1, 400 mg BID, mean, n = 11): 463 ng/mL
AUC(0-t) ([1]; 400 mg, Day 1, 400 mg BID, mean, read-out: AUC(0-12 hr)): 1680 ng·h/mL
Tmax ([1]; 400 mg, Day 1, 400 mg BID, median, read-out: Tmax): 1.5 h
Cmax ([1]; 400 mg, Day 1, 400 mg TID, mean, n = 10): 504 ng/mL
AUC(0-t) ([1]; 400 mg, Day 1, 400 mg TID, mean, read-out: AUC(0-8 hr)): 1650 ng·h/mL
Tmax ([1]; 400 mg, Day 1, 400 mg TID, median, read-out: Tmax): 1.5 h
Cmax [1, 4]: 459 ng/mL
Vd/F [1, 4]: 5030 L
AUC(0-t) ([1]; 400 mg, Day 14, 400 mg BID, mean, read-out: AUC(0-12 hr)): 1640 ng·h/mL
half-life [1, 4]: 12.4 h
Tmax ([1]; 400 mg, Day 14, 400 mg BID, median, read-out: Tmax): 1 h
Cmax [1, 5]: ~550 ng/mL
Vd/F [1, 5]: ~5000 L
AUC(0-t) ([1]; 400 mg, Day 14, 400 mg TID, mean, read-out: AUC(0-8 hr)): 1990 ng·h/mL
half-life [1, 5]: 15.9 h
Tmax ([1]; 400 mg, Day 14, 400 mg TID, median, read-out: Tmax): 1.5 h
Tmax ([1]; across dosages (100 mg BID to 400 mg TID), read-out: Mean Tmax): 1 to 1.5 h
Time at which steady-state trough levels were reached ([1]; multiple dosing): ~11 days
